Patent US10045983B2, “Heteroaryl pyridone and aza-pyrodine compounds” (Genentech, Inc., priority 2011, dated 2018)
Read-outs that look alike come from different tables or passages of the source.

Assay: CD69 Whole Blood Assay (CD69 Hu Blood FACS)
Format: cell-based, human
Details: Lymphocyte, human whole blood, anti-IgM activated B lymphocytes, FACS, IC70
Text: A CD69 Whole Blood Assay can be conducted on Formula I compounds to determine the ability of compounds to inhibit the production of CD69 by B lymphocytes in human whole blood activated by crosslinking surface IgM with goat F(ab′)2 anti-human IgM (Example 907). CD69 is a type II C-type lectin involved in lymphocyte migration and cytokine secretion. CD69 expression represents one of the earliest available indicators of leukocyte activation and its rapid induction occurs through transcriptional activation (Vazquez et al (2009) Jour. of Immunology Published Oct. 19, 2009, doi:10.4049/jimmunol.0900839). Concentration-dependent inhibition of antigen receptor stimulation by selective Btk inhibitors induces cell surface expression of the lymphocyte activation marker CD69 (Honigberg et al (2010) Proc. Natl. Acad. Sci. 107(29):13075-13080). Thus, CD69 inhibition by selective Btk inhibitors may be correlated with therapeutic efficacy of certain B-cell disorders.

[1] = Table 1, read-out: CD69 Hu Blood FACS IC70

`COC[C@H](C)N1CCn2nc(Nc3cc(-c4ccnc(N5CCn6c(cc7c6CC(C)(C)C7)C5=O)c4CO)cn(C)c3=O)cc2C1` (single isomer, unassigned) [Example 303] gave an IC70 (Table 2 (unit inferred), read-out: CD69 Hu Blood FACS (IC70)) of 17.9 nM.

Work on `CN1CCn2nc(Nc3cc(-c4ccnc(N5CCn6c(cc7c6[C@H]6CC[C@@H]7C6)C5=O)c4CO)cn(C)c3=O)cc2C1` (stereo in doubt) [Example 167, 2-(3-(hydroxymethyl)-4-(1-methyl-5-(5-methyl-4,5,6,7-tetrahydropyrazolo[1,5-a]pyrazin-2-ylamino)-6-oxo-1,6-dihydropyridin-3-yl)pyridin-2-yl)-3,4,6,7,8,9-hexahydro-6,9-methanopyrazino[1,2-a]indol-1(2H)-one] yielded an IC70 [1] of 119 nM.

With `CN1CCn2nc(Nc3cc(-c4ccnc(N5CCn6c(cc7c6[C@@H]6CC[C@H]7C6)C5=O)c4CO)cn(C)c3=O)cc2C1` (stereo in doubt) [Example 170, 2-(3-(hydroxymethyl)-4-(1-methyl-5-(5-methyl-4,5,6,7-tetrahydropyrazolo[1,5-a]pyrazin-2-ylamino)-6-oxo-1,6-dihydropyridin-3-yl)pyridin-2-yl)-3,4,6,7,8,9-hexahydro-6,9-methanopyrazino[1,2-a]indol-1(2H)-one] the IC70 [1] was 335 nM.

For `Cn1cc(-c2cncc(N3CCn4c(cc5c4CCCC5)C3=O)c2CO)cc(Nc2ccc(N3CCN(C4COC4)CC3)cn2)c1=O` [Example 101, 2-(4-(hydroxymethyl)-5-(1-methyl-5-(5-(4-(oxetan-3-yl)piperazin-1-yl)pyridin-2-ylamino)-6-oxo-1,6-dihydropyridin-3-yl)pyridin-3-yl)-3,4,6,7,8,9-hexahydropyrazino[1,2-a]indol-1(2H)-one], the IC70 [1] was 132 nM.

Work on `CN1CCN(c2ccc(Nc3cc(-c4cncc(N5CCn6c(cc7c6CCCC7)C5=O)c4CO)cn(C)c3=O)nc2)CC1` [Example 102, 2-(4-(Hydroxymethyl)-5-(1-methyl-5-(5-(4-methylpiperazin-1-yl)pyridin-2-ylamino)-6-oxo-1,6-dihydropyridin-3-yl)pyridin-3-yl)-3,4,6,7,8,9-hexahydropyrazino[1,2-a]indol-1(2H)-one] yielded an IC70 [1] of 132 nM.

`Cn1cc(-c2ccnc(N3CCn4c(cc5c4CCCC5)C3=O)c2CO)cc(Nc2ccc(N3CCN(C4COC4)CC3)cn2)c1=O` [Example 103, 2-(3-(Hydroxymethyl)-4-(1-methyl-5-(5-(4-(oxetan-3-yl)piperazin-1-yl)pyridin-2-ylamino)-6-oxo-1,6-dihydropyridin-3-yl)pyridin-2-yl)-3,4,6,7,8,9-hexahydropyrazino[1,2-a]indol-1(2H)-one] gave an IC70 [1] of 77.6 nM.

With `Cn1cc(-c2nccc(N3CCn4c(cc5c4CCCC5)C3=O)c2CO)cc(Nc2ccc(N3CCN(C4COC4)CC3)cn2)c1=O` [Example 104, 2-(3-(Hydroxymethyl)-2-(1-methyl-5-(5-(4-(oxetan-3-yl)piperazin-1-yl)pyridin-2-ylamino)-6-oxo-1,6-dihydropyridin-3-yl)pyridin-4-yl)-3,4,6,7,8,9-hexahydropyrazino[1,2-a]indol-1(2H)-one] the IC70 [1] was 793 nM.

For `Cn1cc(-c2cncc(N3CCc4c(sc5c4CCCC5)C3=O)c2CO)cc(Nc2ccc(N3CCN(C4COC4)CC3)cn2)c1=O` [Example 105, 4-Hydroxymethyl-3-[1-methyl-5-({5-[4-(oxetan-3-yl)piperazin-1-yl]pyridine-2-yl}amino)-6-oxo-1,6-dihydropyridin-3-yl]-5-{6-oxo-8-thia-5-azatricyclo-[7.4.0.0^2,7]trideca-1(9),2(7)-dien-5-yl}pyridine], the IC70 [1] was 65.4 nM.

`Cn1cc(-c2cncc(N3CCc4c(sc5c4CC(C)(C)C5)C3=O)c2CO)cc(Nc2ccc(N3CCN(C4COC4)CC3)cn2)c1=O` [Example 106] gave an IC70 [1] of 57.6 nM.

Work on `Cn1cc(-c2cncc(N3CCn4c(cc5c4CC(C)(C)C5)C3=O)c2CO)cc(Nc2ccc(N3CCN(C4COC4)CC3)cn2)c1=O` [Example 107, 10-[4-[1-Methyl-5-({5-[4-(oxetan-3-yl)piperazin-1-yl]pyridine-2-yl}amino)-6-oxo-1,6-dihydropyridin-3-yl]-4-(hydroxymethyl)pyridin-3-yl]-4,4-dimethyl-1,10-diazatricyclo[6.4.0.0^2,6]dodeca-2(6),7-dien-9-one] yielded an IC70 [1] of 21.6 nM.

Compound `Cn1cc(-c2ccnc(N3CCn4c(cc5c4CC(C)(C)C5)C3=O)c2CO)cc(Nc2ccc(N3CCN(C4COC4)CC3)cn2)c1=O` [Example 108, 2-(3-(Hydroxymethyl)-4-(1-methyl-5-(5-(4-(oxetan-3-yl)piperazin-1-yl)pyridin-2-ylamino)-6-oxo-1,6-dihydropyridin-3-yl)pyridin-2-yl)-4,4-dimethyl-1,10-diazatricyclo[6.4.0.0^2,6]dodeca-2(6),7-dien-9-one] has an IC70 [1] of 31.9 nM.

In the case of `Cn1cc(-c2ccnc(N3CCc4c(sc5c4CC(C)(C)C5)C3=O)c2CO)cc(Nc2ccc(N3CCN(C4COC4)CC3)cn2)c1=O` [Example 109, 2-(3-(Hydroxymethyl)-4-(1-methyl-5-(5-(4-(oxetan-3-yl)piperazin-1-yl)pyridin-2-ylamino)-6-oxo-1,6-dihydropyridin-3-yl)pyridin-2-yl)-4,4-dimethyl-7-thia-10-azatricyclo[6.4.0.0^2,6]dodeca-1(8),2(6)-dien-9-one], the IC70 [1] was 50.1 nM.

Compound `CN1CCN(c2cccc(Nc3cc(-c4ccnc(N5CCn6c(cc7c6CCCC7)C5=O)c4CO)cn(C)c3=O)n2)CC1` [Example 110, 2-(3-(Hydroxymethyl)-4-(1-methyl-5-(6-(4-methylpiperazin-1-yl)pyridine-2-ylamino)-6-oxo-1,6-dihydropyridin-3-yl)pyridin-2-yl)-3,4,6,7,8,9-hexahydropyrazino[1,2-a]indol-1(2H)-one] has an IC70 [1] of 2700 nM.

`Cn1cc(-c2ccnc(N3CCn4c(cc5c4CCCC5)C3=O)c2CO)cc(Nc2ccc(C(=O)N3CCOCC3)cn2)c1=O` [Example 111, 2-(3-(Hydroxymethyl)-4-(1-methyl-5-(5-(morpholine-4-carbonyl)pyridin-2-ylamino)-6-oxo-1,6-dihydropyridin-3-yl)pyridin-2-yl)-3,4,6,7,8,9-hexahydropyrazino[1,2-a]indol-1(2H)-one] gave an IC70 [1] of 131 nM.

`Cn1cc(-c2cncc(N3CCc4c(cc5n4CCCC5)C3=O)c2CO)cc(Nc2ccc(N3CCN(C4COC4)CC3)cn2)c1=O` [Example 112, 2-(4-(Hydroxymethyl)-5-(1-methyl-5-(5-(4-(oxetan-3-yl)piperazin-1-yl)pyridin-2-ylamino)-6-oxo-1,6-dihydropyridin-3-yl)pyridin-3-yl)-3,4,6,7,8,9-hexahydropyrido[3,4-b]indolizin-1(2H)-one] showed an IC70 [1] of 492 nM.

Work on `CN1CCn2nc(Nc3cc(-c4ccnc(N5CCn6c(cc7c6CCCC7)C5=O)c4CO)cn(C)c3=O)cc2C1` [Example 113, 2-(3-(Hydroxymethyl)-4-(1-methyl-5-(5-methyl-4,5,6,7-tetrahydropyrazolo[1,5-a]pyrazin-2-ylamino)-6-oxo-1,6-dihydropyridin-3-yl)pyridin-2-yl)-3,4,6,7,8,9-hexahydropyrazino[1,2-a]indol-1(2H)-one] yielded an IC70 [1] of 62.5 nM.

With `CN1CCN(C)[C@H](c2ccc(Nc3nc(-c4ccnc(N5CCn6c(cc7c6CCCC7)C5=O)c4CO)cn(C)c3=O)cc2)C1=O` [Example 114, (R)-2-(4-(6-(4-(1,4-dimethyl-3-oxopiperazin-2-yl)phenylamino)-4-methyl-5-oxo-4,5-dihydropyrazin-2-yl)-3-(hydroxymethyl)pyridin-2-yl)-3,4,6,7,8,9-hexahydropyrazino[1,2-a]indol-1(2H)-one] the IC70 [1] was 80.2 nM.

Compound `Cc1cc(Nc2cc(-c3ccnc(N4CCn5c(cc6c5CCCC6)C4=O)c3CO)cn(C)c2=O)n[nH]1` [Example 115, 2-(3-(Hydroxymethyl)-4-(1-methyl-5-(5-methyl-1H-pyrazol-3-ylamino)-6-oxo-1,6-dihydropyridin-3-yl)pyridin-2-yl)-3,4,6,7,8,9-hexahydropyrazino[1,2-a]indol-1(2H)-one] has an IC70 [1] of 286 nM.

In the case of `Cn1cc(-c2cncc(-n3ncc4c5c(sc4c3=O)CCCC5)c2CO)cc(Nc2ccc(N3CCN(C4COC4)CC3)cn2)c1=O` [Example 116, 4-Hydroxymethyl-3-[1-methyl-5-({5-[4-(oxetan-3-yl)piperazin-1-yl]pyridine-2-yl}amino)-6-oxo-1,6-dihydropyridin-3-yl]-5-{6-oxo-8-thia-4,5-diazatricyclo[7.4.0.0^2,7]trideca-1(9),2(7),3-trien-5-yl}pyridine], the IC70 [1] was 377 nM.

`Cn1cc(-c2ccnc(N3CCn4c(cc5c4CCCC5)C3=O)c2CO)cc(Nc2ccc(S(C)(=O)=O)cn2)c1=O` [Example 117, 2-(3-(hydroxymethyl)-4-(1-methyl-5-(5-(methylsulfonyl)pyridin-2-ylamino)-6-oxo-1,6-dihydropyridin-3-yl)pyridin-2-yl)-3,4,6,7,8,9-hexahydro-pyrazino[1,2-a]indol-1(2H)-one] gave an IC70 [1] of 396 nM.

For `Cn1cc(-c2ccnc(N3CCn4c(cc5c4CCCC5)C3=O)c2CO)cc(Nc2cc(C3CC3)[nH]n2)c1=O` [Example 118, 2-(4-(5-(5-Cyclopropyl-1H-pyrazol-3-ylamino)-1-methyl-6-oxo-1,6-dihydropyridin-3-yl)-3-(hydroxymethyl)pyridin-2-yl)-3,4,6,7,8,9-hexahydropyrazino[1,2-a]indol-1(2H)-one], the IC70 [1] was 608 nM.

`C[C@H]1CN(C2COC2)CCN1c1ccc(Nc2cc(-c3ccnc(N4CCn5c(cc6c5CCCC6)C4=O)c3CO)cn(C)c2=O)nc1` [Example 119, (S)-2-(3-(Hydroxymethyl)-4-(1-methyl-5-(5-(2-methyl-4-(oxetan-3-yl)piperazin-1-yl)pyridin-2-ylamino)-6-oxo-1,6-dihydropyridin-3-yl)pyridin-2-yl)-3,4,6,7,8,9-hexahydropyrazino[1,2-a]indol-1(2H)-one] gave an IC70 [1] of 35.6 nM.
